Assay results as given in patent US20260274892A1, “MACROCYCLIC BROAD SPECTRUM ANTIBIOTICS” (RQx Pharmaceuticals, Inc., priority 2017, published 2026).

Assays:
[1] = test system: Methicillin Resistant Staphylococcus aureus strain USA 200; assay: Minimum inhibitory concentration (MIC), CLSI broth micro-dilution, S. aureus; assay type: cell-based; details: Table 6, MRSA USA 200, cation adjusted Mueller Hinton Broth + 0.002% Tween-80, 35° C., 22 hours
Outline: (§1)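 Antibacterial potency is measured as MIC by the CLSI broth dilution method. Bacteria at OD600 0.0005 in Tween-80-supplemented cation-adjusted Mueller Hinton broth face ten twofold compound dilutions for 22 h at 35° C.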

[2] = test system: Escherichia coli ATCC 25922; assay: Minimum inhibitory concentration (MIC), CLSI broth micro-dilution, E. coli; assay type: cell-based; details: Table 6, cation adjusted Mueller Hinton Broth + 0.002% Tween-80, 35° C.
Outline: as §1

[3] = Staphylococcus aureus, MRSA / USA200
[4] = Escherichia coli, ATCC25922, 22 h

Question: Which MIC [1, 3] does the source give for `Cc1nc(-c2ccc(S(F)(F)(F)(F)F)cc2)ncc1C(=O)N[C@@H](CCN)C(=O)N(C)[C@@H]1C(=O)N[C@@H](C)C(=O)N[C@H](C(=O)NCC#N)Cc2ccc(OCCN)c(c2)-c2cc1ccc2OCCN` (racemic) [Compound 225, rac-(8S,11S,14S)-3,18-bis(2-aminoethoxy)-N-(cyanomethyl)-11-methyl-14-[methyl-[rac-(2S)-4-amino-2-[[4-methyl-2-[4-(pentafluoro-lambda6-sulfanyl)phenyl]pyrimidine-5-carbonyl]amino]butanoyl]amino]-10,13-dioxo-9,12-diazatricyclo[13.3.1.12,6]icosa-1(18),2(20),3,5,15(19),16-hexaene-8-carboxamide] here?
Answer: 0.016 µM

Question: What about the MIC [2, 4] of the same molecule?
Answer: 0.19 µM

Question: For `CCCC#Cc1ccc(-c2ncc(C(=O)N[C@@H](CCN)C(=O)N(C)[C@@H]3C(=O)N[C@@H](C)C(=O)N[C@H](C(=O)NCC#N)Cc4ccc(OCCN)c(c4)-c4cc3ccc4OCCN)c(C)n2)cc1` (racemic) [Compound 227, rac-(8S,11S,14S)-3,18-bis(2-aminoethoxy)-N-(cyanomethyl)-11-methyl-14-[methyl-[rac-(2S)-4-amino-2-[[4-methyl-2-(4-pent-1-ynylphenyl)pyrimidine-5-carbonyl]amino]butanoyl]amino]-10,13-dioxo-9,12-diazatricyclo[13.3.1.12,6]icosa-1(18),2(20),3,5,15(19),16-hexaene-8-carboxamide], which MIC [1, 3] is on record?
Answer: 0.017 µM

Question: And the MIC [2, 4]?
Answer: 0.077 µM

Question: Which MIC [1] does the source give for `Cc1nc(C#CC(C)C)ncc1C(=O)N[C@@H](CCN)C(=O)N(C)[C@@H]1C(=O)N[C@@H](C)C(=O)N[C@H](C(=O)NCC#N)Cc2ccc(OCCN)c(c2)-c2cc1ccc2OCCN` (racemic) [Compound 229, rac-(8S,11S,14S)-3,18-bis(2-aminoethoxy)-N-(cyanomethyl)-11-methyl-14-[methyl-[rac-(2S)-4-amino-2-[[4-methyl-2-(3-methylbut-l-ynyl)pyrimidine-5-carbonyl]amino]butanoyl]amino]-10,13-dioxo-9,12-diazatricyclo[13.3.1.12,6]icosa-1(18),2(20),3,5,15(19),16-hexaene-8-carboxamide] here?
Answer: 0.57 µM

Question: What about the MIC ([2]; 22 hours) of the same molecule?
Answer: 4.6 µM

Question: Which results are given for `Cc1nc(-c2ccc(C3CCCC3)cc2)ncc1C(=O)N[C@@H](CCN)C(=O)N(C)[C@@H]1C(=O)N[C@@H](C)C(=O)N[C@H](C(=O)NCC#N)Cc2ccc(OCCN)c(c2)-c2cc1ccc2OCCN` (racemic) [Compound 230, rac-(8S,11S,14S)-3,18-bis(2-aminoethoxy)-N-(cyanomethyl)-11-methyl-14-[methyl-[rac-(2S)-4-amino-2-[[2-(4-cyclopentylphenyl)-4-methyl-pyrimidine-5-carbonyl]amino]butanoyl]amino]-10,13-dioxo-9,12-diazatricyclo[13.3.1.12,6]icosa-1(18),2(20),3,5,15(19),16-hexaene-8-carboxamide]?
Answer: MIC [1, 3]: 0.012 µM; MIC [2, 4]: 0.066 µM

Question: How did the MIC [1, 3] turn out when `Cc1nc(-c2ccc(C3CCOCC3)cc2)ncc1C(=O)N[C@@H](CCN)C(=O)N(C)[C@@H]1C(=O)N[C@@H](C)C(=O)N[C@H](C(=O)NCC#N)Cc2ccc(OCCN)c(c2)-c2cc1ccc2OCCN` (racemic) [Compound 231, rac-(8S,11S,14S)-3,18-bis(2-aminoethoxy)-N-(cyanomethyl)-11-methyl-14-[methyl-[rac-(2S)-4-amino-2-[[4-methyl-2-(4-tetrahydropyran-4-ylphenyl)pyrimidine-5-carbonyl]amino]butanoyl]amino]-10,13-dioxo-9,12-diazatricyclo[13.3.1.12,6]icosa-1(18),2(20),3,5,15(19),16-hexaene-8-carboxamide] was run?
Answer: 0.35 µM

Question: And the MIC [2, 4]?
Answer: 1.4 µM

Question: Which results are given for `Cc1nc(-c2cnc(-c3ccc(C(C)(C)C)cc3)nc2)ncc1C(=O)N[C@@H](CCN)C(=O)N(C)[C@@H]1C(=O)N[C@@H](C)C(=O)N[C@H](C(=O)NCC#N)Cc2ccc(OCCN)c(c2)-c2cc1ccc2OCCN` (racemic) [Compound 232, rac-(8S,11S,14S)-3,18-bis(2-aminoethoxy)-N-(cyanomethyl)-11-methyl-14-[methyl-[rac-(2S)-4-amino-2-[[2-[2-(4-tert-butylphenyl)pyrimidin-5-yl]-4-methyl-pyrimidine-5-carbonyl]amino]butanoyl]amino]-10,13-dioxo-9,12-diazatricyclo[13.3.1.12,6]icosa-1(18),2(20),3,5,15(19),16-hexaene-8-carboxamide]?
Answer: MIC [1, 3]: 0.015 µM; MIC [2, 4]: 0.16 µM

Question: Which MIC [1, 3] does the source give for `Cc1nc(-c2ccc(C3CCCCC3)cc2)ncc1C(=O)N[C@@H](CCN)C(=O)N(C)[C@@H]1C(=O)N[C@@H](C)C(=O)N[C@H](C(=O)NCC#N)Cc2ccc(OCCN)c(c2)-c2cc1ccc2OCCN` (racemic) [Compound 233, rac-(8S,11S,14S)-3,18-bis(2-aminoethoxy)-N-(cyanomethyl)-11-methyl-14-[methyl-[rac-(2S)-4-amino-2-[[2-(4-cyclohexylphenyl)-4-methyl-pyrimidine-5-carbonyl]amino]butanoyl]amino]-10,13-dioxo-9,12-diazatricyclo[13.3.1.12,6]icosa-1(18),2(20),3,5,15(19),16-hexaene-8-carboxamide] here?
Answer: 0.016 µM

Question: And the MIC [2, 4]?
Answer: 0.13 µM

Question: What does the source list for `Cc1nc(-c2ccc3c(c2)CCC3(C)C)ncc1C(=O)N[C@@H](CCN)C(=O)N(C)[C@@H]1C(=O)N[C@@H](C)C(=O)N[C@H](C(=O)NCC#N)Cc2ccc(OCCN)c(c2)-c2cc1ccc2OCCN` (racemic) [Compound 234, rac-(8S,11S,14S)-3,18-bis(2-aminoethoxy)-N-(cyanomethyl)-11-methyl-14-[methyl-[rac-(2S)-4-amino-2-[[2-(1,1-dimethylindan-5-yl)-4-methyl-pyrimidine-5-carbonyl]amino]butanoyl]amino]-10,13-dioxo-9,12-diazatricyclo[13.3.1.12,6]icosa-1(18),2(20),3,5,15(19),16-hexaene-8-carboxamide]?
Answer: MIC [1, 3]: 0.0082 µM; MIC [2, 4]: 0.066 µM

Question: Which MIC [1, 3] does the source give for `CCCCc1ccc(-c2ncc(C(=O)N[C@@H](CCN)C(=O)N(C)[C@@H]3C(=O)N[C@@H](C)C(=O)N[C@H](C(=O)NCC#N)Cc4ccc(OCCN)c(c4)-c4cc3ccc4OCCN)c(C)n2)c(Cl)c1` (racemic) [Compound 235, rac-(8S,11S,14S)-3,18-bis(2-aminoethoxy)-N-(cyanomethyl)-11-methyl-14-[methyl-[rac-(2S)-4-amino-2-[[2-(4-butyl-2-chloro-phenyl)-4-methyl-pyrimidine-5-carbonyl]amino]butanoyl]amino]-10,13-dioxo-9,12-diazatricyclo[13.3.1.12,6]icosa-1(18),2(20),3,5,15(19),16-hexaene-8-carboxamide] here?
Answer: 0.016 µM

Question: And the MIC [2, 4]?
Answer: 0.26 µM

Question: For `Cc1nc(-c2ccc(C(C)(C)c3ccccc3)cc2)ncc1C(=O)N[C@@H](CCN)C(=O)N(C)[C@@H]1C(=O)N[C@@H](C)C(=O)N[C@H](C(=O)NCC#N)Cc2ccc(OCCN)c(c2)-c2cc1ccc2OCCN` (racemic) [Compound 236, rac-(8S,11S,14S)-3,18-bis(2-aminoethoxy)-N-(cyanomethyl)-11-methyl-14-[methyl-[rac-(2S)-4-amino-2-[[4-methyl-2-[4-(1-methyl-1-phenyl-ethyl)phenyl]pyrimidine-5-carbonyl]amino]butanoyl]amino]-10,13-dioxo-9,12-diazatricyclo[13.3.1.12,6]icosa-1(18),2(20),3,5,15(19),16-hexaene-8-carboxamide], which MIC [1, 3] is on record?
Answer: 0.016 µM

Question: And the MIC [2, 4]?
Answer: 0.13 µM

Question: How did the MIC [1, 3] turn out when `Cc1nc(-c2cccc(C(C)(C)C)c2)ncc1C(=O)N[C@@H](CCN)C(=O)N(C)[C@@H]1C(=O)N[C@@H](C)C(=O)N[C@H](C(=O)NCC#N)Cc2ccc(OCCN)c(c2)-c2cc1ccc2OCCN` (racemic) [Compound 237, rac-(8S,11S,14S)-3,18-bis(2-aminoethoxy)-N-(cyanomethyl)-11-methyl-14-[methyl-[rac-(2S)-4-amino-2-[[2-(3-tert-butylphenyl)-4-methyl-pyrimidine-5-carbonyl]amino]butanoyl]amino]-10,13-dioxo-9,12-diazatricyclo[13.3.1.12,6]icosa-1(18),2(20),3,5,15(19),16-hexaene-8-carboxamide] was run?
Answer: 0.0083 µM

Question: What about the MIC [2, 4] of the same molecule?
Answer: 0.27 µM

Question: Which MIC [1, 3] does the source give for `Cc1nc(-c2ccc(C3(C)COC3)cc2)ncc1C(=O)N[C@@H](CCN)C(=O)N(C)[C@@H]1C(=O)N[C@@H](C)C(=O)N[C@H](C(=O)NCC#N)Cc2ccc(OCCN)c(c2)-c2cc1ccc2OCCN` (racemic) [Compound 238, rac-(8S,11S,14S)-3,18-bis(2-aminoethoxy)-N-(cyanomethyl)-11-methyl-14-[methyl-[rac-(2S)-4-amino-2-[[4-methyl-2-[4-(3-methyloxetan-3-yl)phenyl]pyrimidine-5-carbonyl]amino]butanoyl]amino]-10,13-dioxo-9,12-diazatricyclo[13.3.1.12,6]icosa-1(18),2(20),3,5,15(19),16-hexaene-8-carboxamide] here?
Answer: 0.53 µM

Question: What about the MIC [2, 4] of the same molecule?
Answer: 2.1 µM

Question: With `Cc1nc(-c2ccc(C3C4CC5CC(C4)CC3C5)cc2)ncc1C(=O)N[C@@H](CCN)C(=O)N(C)[C@@H]1C(=O)N[C@@H](C)C(=O)N[C@H](C(=O)NCC#N)Cc2ccc(OCCN)c(c2)-c2cc1ccc2OCCN` (mixture of isomers) [Compound 239, rac-(8S,11S,14S)-3,18-bis(2-aminoethoxy)-N-(cyanomethyl)-11-methyl-14-[methyl-[rac-(2S)-2-[[2-[4-(2-adamantyl)phenyl]-4-methyl-pyrimidine-5-carbonyl]amino]-4-amino-butanoyl]amino]-10,13-dioxo-9,12-diazatricyclo[13.3.1.12,6]icosa-1(18),2(20),3,5,15(19),16-hexaene-8-carboxamide] as the molecule, how does the MIC [1, 3] read?
Answer: 0.015 µM

Question: And the MIC [2, 4]?
Answer: 0.12 µM
